From US10167346B2, “Compositions and methods for making alpha-(1,2)-branched alpha-(1,6) oligodextrans” (TATE & LYLE INGREDIENTS FRANCE SAS, priority 2009, dated 2019)

Test system: Caenorhabditis elegans
Assay: lipid content in the in vivo model Caenorhabditis elegans
Conditions: positive control, concentration not given
Procedure: Oligodextrans according to the present invention were evaluated for their effect on lipid content using the in vivo model Caenorhabditis elegans. The substrates evaluated were TLD-1000 (unbranched 1 kDa dextran) and TLD-1030 (1 kDa dextran+32% α-1,2). […] A negative control (DMSO) and positive control (Orlistat) were also included. Each substrate was assayed four times with a total of 120 worms per substrate and concentration.

## CCCCCCCCCCC[C@@H](C[C@@H]1OC(=O)[C@H]1CCCCCC)OC(=O)[C@H](CC(C)C)NC=O [Orlistat]
  reduction in lipid content: > 40%
